Where two headings read alike, the source gives them in different places.

For this assay, the target named is T1, recombinant human NaV1.8 stably transfected HEK cells (Homo sapiens, UniProt Q9Y5Y9).
T1 construct: expressed in transfected cells; host or cells: HEK cells, stably transfected
Put plainly: Compound profiling on NaV1.8, human NaV1.8 cell line, SyncroPatch384PE automated patch clamp assay (Example 102, first set of compounds, Table 16). The format is cell-based. Particulars: human NaV1.8 HEK cells, Table 16 (first set of compounds). The procedure: Compound Profiling on NaV1.8—Human NaV1.8 Cell Line—SyncroPatch384PE Assay
Compounds were tested on recombinant human NaV1.8 stably transfected HEK cells using the SyncroPatch384PE system, an automated patch clamp device. Cells were cultured at 37° C./5% CO2 in DMEM medium supplemented with GlutaMAX I, NEAA 1%, FBS 10% and seeded in T175 flasks. Cells were cultured at 30° C. one day prior to recording sodium currents. On the day of the recordings, cells were detached with 0.05% Trypsin-EDTA, resuspended in serum free DMEM medium and placed into the SyncroPatch384PE 6° C. pre-cooled cell hotel and shaken at 200 rpm. Intracellular solution (IC) contained, in mM: 10, CsCl; 110, CsF; 20, EGTA; 10, HEPES. Extracellular solution (EC) contained, in mM: 140, NaCl; 4, KCl; 5, Glucose; 10, HEPES; 2, CaCl2; 1, MgCl2. Washing solution contained, in mM: 40, NMDG; 100, NaCl; 4, KCl; 10, Glucose; 10, HEPES; 5, CaCl2; 1, MgCl2.
Compounds were tested in triplicate in 0.1% DMSO and 0.030% Pluronic Acid. Compounds were diluted 1:3 in EC solution to create a 10-point concentration response curve, spanning a final concentration range from 20-0.001 μM in the assay plate. Each plate contained tetracaine and another tool compound as positive controls. Up to 8 compounds were tested on one plate. 250 μM tetracaine and 0.1% DMSO were used as high and low controls, respectively. Whole cell patch clamp recordings were conducted according to Nanion's standard procedure for SyncroPatch384PE®. Cells were held at a holding potential of −120 mV. A depolarization step to 10 mV for 30 ms was applied (P1 measurement), followed by a hyperpolarization step to −100 mV for 100 ms. An inactivation step at −40 mV for 10 sec was applied before stepping to −100 mV for 20 ms, followed by a step to 10 mV for 30 ms (P2 measurement) and then back to −100 mV for 30 ms. Sweep interval was 15 sec with a sampling rate of 10 kHz. Following establishment of the whole-cell configuration in EC, two washing steps with reference buffer were performed to stabilize the baseline. Compounds were then applied by the SynchroPatch into each well and the current was recorded for five minutes in EC, followed by application of tetracaine to achieve full block at the end of the experiment. The potency of the compounds was assessed on two read-outs, resting state block (P1 measurement) or inactivated state block (P2 measurement) to obtain IC50 values. Values were normalized to high (tetracaine) and low (DMSO) controls. The IC50 values are listed in Table 16 as follows: “A” represents an IC50 less than or equal to 20 nM, “B” represents an IC50 greater than 20 nM to less than or equal to 40 nM, “C” represents an IC50 greater than 40 nM to less than or equal to 200 nM, “D” represents an IC50 greater than 200 nM to less than or equal to 500 nM.
On the technique in general: Patch clamp records ionic current or voltage across a cell membrane.

[1] abbreviates: inactivated state block (P2 measurement), read-out: P2IC50.
[2] abbreviates: resting state block (P1 measurement), read-out: P1IC50.

T1 sequence (Q9Y5Y9 whole entry): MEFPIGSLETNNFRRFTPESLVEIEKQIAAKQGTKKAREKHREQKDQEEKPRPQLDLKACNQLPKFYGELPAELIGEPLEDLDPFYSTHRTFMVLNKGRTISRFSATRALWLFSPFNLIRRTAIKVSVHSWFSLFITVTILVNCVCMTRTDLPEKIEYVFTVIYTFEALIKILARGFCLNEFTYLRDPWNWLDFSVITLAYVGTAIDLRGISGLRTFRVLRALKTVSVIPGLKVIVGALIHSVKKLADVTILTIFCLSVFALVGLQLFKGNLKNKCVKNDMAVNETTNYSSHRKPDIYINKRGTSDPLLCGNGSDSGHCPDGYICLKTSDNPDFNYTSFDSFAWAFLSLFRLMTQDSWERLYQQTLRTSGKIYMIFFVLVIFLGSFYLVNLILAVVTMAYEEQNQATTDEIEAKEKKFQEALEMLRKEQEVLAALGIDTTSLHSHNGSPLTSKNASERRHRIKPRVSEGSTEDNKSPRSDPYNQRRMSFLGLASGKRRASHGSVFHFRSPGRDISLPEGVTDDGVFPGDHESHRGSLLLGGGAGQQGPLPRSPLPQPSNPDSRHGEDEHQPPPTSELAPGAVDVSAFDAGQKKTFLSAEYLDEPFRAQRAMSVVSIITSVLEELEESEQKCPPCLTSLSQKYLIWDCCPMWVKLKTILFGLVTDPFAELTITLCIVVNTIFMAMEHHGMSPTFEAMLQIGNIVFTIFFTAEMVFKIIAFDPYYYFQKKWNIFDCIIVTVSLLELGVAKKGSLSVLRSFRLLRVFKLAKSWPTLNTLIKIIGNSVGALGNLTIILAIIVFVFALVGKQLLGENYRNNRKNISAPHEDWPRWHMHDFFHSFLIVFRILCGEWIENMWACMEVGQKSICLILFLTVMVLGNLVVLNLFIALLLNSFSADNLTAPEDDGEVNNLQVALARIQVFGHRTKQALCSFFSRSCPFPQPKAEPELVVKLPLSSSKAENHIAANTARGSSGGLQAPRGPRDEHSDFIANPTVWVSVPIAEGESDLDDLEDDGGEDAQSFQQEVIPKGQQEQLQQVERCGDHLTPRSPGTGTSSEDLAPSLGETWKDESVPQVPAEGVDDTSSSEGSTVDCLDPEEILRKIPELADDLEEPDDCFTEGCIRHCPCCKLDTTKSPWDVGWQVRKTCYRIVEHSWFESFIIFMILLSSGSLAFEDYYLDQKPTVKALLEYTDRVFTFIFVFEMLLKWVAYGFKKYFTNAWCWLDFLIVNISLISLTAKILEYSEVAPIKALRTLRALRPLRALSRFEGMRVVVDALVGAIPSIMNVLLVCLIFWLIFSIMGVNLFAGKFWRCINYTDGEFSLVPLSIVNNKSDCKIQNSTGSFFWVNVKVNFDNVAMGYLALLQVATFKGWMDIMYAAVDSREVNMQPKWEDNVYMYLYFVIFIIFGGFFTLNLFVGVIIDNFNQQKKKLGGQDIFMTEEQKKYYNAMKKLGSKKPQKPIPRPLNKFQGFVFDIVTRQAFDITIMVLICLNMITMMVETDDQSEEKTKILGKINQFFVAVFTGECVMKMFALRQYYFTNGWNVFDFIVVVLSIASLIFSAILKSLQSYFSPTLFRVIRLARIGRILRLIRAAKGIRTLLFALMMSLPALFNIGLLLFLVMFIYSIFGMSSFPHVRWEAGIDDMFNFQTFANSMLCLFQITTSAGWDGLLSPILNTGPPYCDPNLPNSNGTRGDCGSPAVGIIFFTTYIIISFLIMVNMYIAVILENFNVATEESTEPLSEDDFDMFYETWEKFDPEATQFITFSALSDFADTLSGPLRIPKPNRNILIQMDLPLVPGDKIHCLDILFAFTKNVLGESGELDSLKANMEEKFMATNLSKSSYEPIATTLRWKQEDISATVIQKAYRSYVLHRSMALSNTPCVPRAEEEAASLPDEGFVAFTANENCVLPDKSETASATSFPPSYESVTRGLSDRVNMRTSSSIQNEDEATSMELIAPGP

Consider `Cc1c(C(F)(F)F)nnc(Oc2ccc(OC3CCC3)c(F)c2F)c1C(=O)Nc1cccc(S(C)(=O)=O)c1` [Compound 1426], for which the IC50 reads like this: under setting [1], no more than 20 nM; under setting [2], no more than 20 nM.

For `Cc1c(Oc2ncc(C(F)(F)F)cc2C(=O)Nc2cccc(S(C)(=N)=O)c2)ccc(OC(F)(F)F)c1F` (single isomer, unassigned) [Compound 1715], the IC50 under setting [2] is no more than 20 nM. As to `Cc1ccc(Oc2ncc(C(F)(F)F)cc2C(=O)Nc2cccc(S(C)(=N)=O)c2)c(OC(F)F)n1` (stereo not shown) [Compound 1690], the IC50 runs as follows: under setting [1], no more than 20 nM; under setting [2], no more than 20 nM. Turning to `COc1cc(C#N)ccc1Oc1ncc(C23CCOCC2C3)cc1C(=O)Nc1cccc(S(C)(=N)=O)c1` (stereo not shown) [Compound 1725, 2-(4-cyano-2-methoxy-phenoxy)-N-[3-(methylsulfonimidoyl)phenyl]-5-(3-oxabicyclo[4.1.0]heptan-6-yl)pyridine-3-carboxamide], the IC50 runs as follows: under setting [1], 200 to 500 nM; under setting [2], 200 to 500 nM. Consider `Cc1nc(C#N)ccc1Oc1ncc(C(F)(F)F)cc1C(=O)Nc1cccc(S(C)(=N)=O)c1` (stereo not shown) [Compound 1701], for which the IC50 under setting [1] lay in the range of 20 to 40 nM and the IC50 under setting [2] fell in the range of 20 to 40 nM. As for `COc1cc(C#N)ccc1Oc1nnc(-c2ccc(C(F)F)cc2)c(C)c1C(=O)Nc1cccc([S@@](C)(=N)=O)c1` [Compound 1533, 3-(4-cyano-2-methoxyphenoxy)-6-[4-(difluoromethyl)phenyl]-N-{3-[(S)-imino(methyl)oxo-λ^6-sulfanyl]phenyl}-5-methylpyridazine-4-carboxamide], the IC50 by setting is: under setting [1], 20 to 40 nM; under setting [2], 20 to 40 nM. Turning to `COc1cc(C#N)ccc1Oc1nnc(-c2cnc(C)s2)c(C)c1C(=O)Nc1cccc(S(C)(=N)=O)c1` (stereo not shown) [Compound 1449, 3-(4-cyano-2-methoxy-phenoxy)-5-methyl-N-[3-(methylsulfonimidoyl)phenyl]-6-(2-methylthiazol-5-yl)pyridazine-4-carboxamide], the IC50 fell in the range of 200 to 500 nM under setting [1] and 200 to 500 nM under setting [2].

For the compound `Cc1nc(F)ccc1Oc1ncc(C(F)(F)F)cc1C(=O)Nc1cccc([S@@](C)(=N)=O)c1` (single isomer, unassigned) [Compound 1594], the IC50 lay in the range of 40 to 200 nM under setting [1] and 40 to 200 nM under setting [2].

Consider `CS(=N)(=O)c1cccc(NC(=O)c2cc(C(F)(F)F)cnc2OC2CC(C#N)C2)c1` (stereo not shown) [Compound 1665], for which the IC50 was 200 to 500 nM under setting [1] and 200 to 500 nM under setting [2]. As to `Cc1c(C(F)(F)F)nnc(Oc2ccc(OC(F)(F)F)cc2F)c1C(=O)Nc1cccc(S(C)(=N)=O)c1` (stereo not shown) [Compound 1495, 3-[2-fluoro-4-(trifluoromethoxy)phenoxy]-5-methyl-N-[3-(methylsulfonimidoyl)phenyl]-6-(trifluoromethyl)pyridazine-4-carboxamide], the IC50 under setting [1] is no more than 20 nM and the IC50 under setting [2] is no more than 20 nM. Regarding `COc1ccc(Oc2nnc(C(F)(F)F)c(C)c2C(=O)Nc2cccc(S(C)(=N)=O)c2)c(C)n1` (stereo not shown) [Compound 1507, N-{3-[imino(methyl)oxo-λ^6-sulfanyl]phenyl}-3-[(6-methoxy-2-methylpyridin-3-yl)oxy]-5-methyl-6-(trifluoromethyl)pyridazine-4-carboxamide], the IC50 lay within 40 to 200 nM under setting [1] and 40 to 200 nM under setting [2].

Consider `COc1c(Oc2nnc(C(F)(F)F)c(C)c2C(=O)Nc2cccc(S(C)(=O)=O)c2)ccc(F)c1F` [Compound 1425], for which the IC50 reads like this: under setting [1], no more than 20 nM; under setting [2], no more than 20 nM. For the compound `Cc1cc(C#N)ccc1Oc1nnc(C(F)(F)F)c(C)c1C(=O)Nc1cccc(S(C)(=O)=O)c1` [Compound 1465, 3-(4-cyano-2-methylphenoxy)-N-(3-methanesulfonylphenyl)-5-methyl-6-(trifluoromethyl)pyridazine-4-carboxamide], the IC50 is no more than 20 nM under setting [1] and no more than 20 nM under setting [2]. For the compound `COc1c(Oc2nnc(C)c(C)c2C(=O)Nc2cccc(S(C)(=N)=O)c2)ccc(F)c1F` (stereo not shown) [Compound 1435, 3-(3,4-difluoro-2-methoxyphenoxy)-5,6-dimethyl-N-(3-(S-methylsulfonimidoyl)phenyl)pyridazine-4-carboxamide], the IC50 under setting [1] lay within 200 to 500 nM and the IC50 under setting [2] was 200 to 500 nM. `CS(=O)(=O)c1cccc(NC(=O)c2cc(C(F)(F)F)cnc2OCCC(F)(F)F)c1` [Compound 1604]: the IC50 is 200 to 500 nM under setting [1] and 40 to 200 nM under setting [2]. For `COc1nc(C)c(Oc2ncc(C(F)(F)F)cc2C(=O)Nc2cccc(S(C)(=N)=O)c2)cc1F` (stereo not shown) [Compound 1639] the same measures were 200 to 500 nM and 200 to 500 nM. For `COc1cc(C#N)ccc1Oc1nnc(-c2ccc(C)cn2)c(C)c1C(=O)Nc1cccc(S(C)(=N)=O)c1` (stereo not shown) [Compound 1464, 3-(4-cyano-2-methoxy-phenoxy)-5-methyl-6-(5-methyl-2-pyridyl)-N-[3-(methylsulfonimidoyl)phenyl]pyridazine-4-carboxamide] the same measures were 200 to 500 nM and 200 to 500 nM. The corresponding values for `COc1cc(C#N)ccc1Oc1nnc(-c2ccnnc2)c(C)c1C(=O)Nc1cccc(S(C)(=N)=O)c1` (stereo not shown) [Compound 1456, 3-(4-cyano-2-methoxy-phenoxy)-5-methyl-N-[3-(methylsulfonimidoyl)phenyl]-6-pyridazin-4-yl-pyridazine-4-carboxamide] are 200 to 500 nM and 200 to 500 nM. As to `CS(=O)(=O)c1cccc(NC(=O)c2cc(C(F)(F)F)cnc2Oc2cccn3ccnc23)c1` [Compound 1599], the IC50 under setting [1] lay within 200 to 500 nM and the IC50 under setting [2] lay within 200 to 500 nM. With `CS(=N)(=O)c1cccc(NC(=O)c2cc(C(F)(F)F)cnc2Oc2ccc(-n3ccnc3)cc2)c1` (stereo not shown) [Compound 1586], the IC50 reads like this: under setting [1], 200 to 500 nM; under setting [2], 200 to 500 nM. Regarding `CS(=O)(=O)c1cccc(NC(=O)c2cc(C(F)(F)F)cnc2Oc2ccc(OC(F)(F)F)cc2F)c1` [Compound 1661], the IC50 under setting [1] was no more than 20 nM and the IC50 under setting [2] is no more than 20 nM. As to `COc1nc(C#N)ccc1Oc1ncc(C(F)(F)F)cc1C(=O)Nc1cccc([S@](C)(=N)=O)c1` [Compound 1655], the IC50 is no more than 20 nM under setting [1] and no more than 20 nM under setting [2].

On to `COc1ccc(Oc2nnc(C(F)(F)F)c(C)c2C(=O)Nc2cccc(S(C)(=N)=O)c2)c(C)c1F` (single isomer, unassigned) [Compound 1505, 3-(3-fluoro-4-methoxy-2-methylphenoxy)-N-{3-[imino(methyl)oxo-λ^6-sulfanyl]phenyl}-5-methyl-6-(trifluoromethyl)pyridazine-4-carboxamide], for which the IC50 runs as follows: under setting [1], no more than 20 nM; under setting [2], no more than 20 nM. In the case of `CC(C)Oc1ccc(Oc2ncc(C(F)(F)F)cc2C(=O)Nc2ccc(-c3ncc[nH]3)cc2)c(F)c1F` [Compound 1649], the IC50 under setting [1] lay within 200 to 500 nM and the IC50 under setting [2] lay within 200 to 500 nM. As for `Cc1cc(C#N)ccc1Oc1nnc(C(F)(F)F)c(C)c1C(=O)Nc1cccc([S@@](C)(=N)=O)c1` [Compound 1525, 3-(4-cyano-2-methylphenoxy)-N-{3-[(S)-imino(methyl)oxo-λ^6-sulfanyl]phenyl}-5-methyl-6-(trifluoromethyl)pyridazine-4-carboxamide], the IC50 reads like this: under setting [1], no more than 20 nM; under setting [2], no more than 20 nM.

In the case of `COc1cc(C#N)ccc1Oc1nnc(-c2cncn2C)c(C)c1C(=O)Nc1cccc(S(C)(=N)=O)c1` (stereo not shown) [Compound 1447, 3-(4-cyano-2-methoxy-phenoxy)-5-methyl-6-(3-methylimidazol-4-yl)-N-[3-(methylsulfonimidoyl)phenyl]pyridazine-4-carboxamide], the IC50 lay in the range of 20 to 40 nM under setting [1] and 20 to 40 nM under setting [2]. `COc1cc(F)c(Oc2ncc(C(F)(F)F)cc2C(=O)Nc2cccc(S(C)(=N)=O)c2)cc1F` (stereo not shown) [Compound 1637]: the IC50 runs as follows: under setting [1], 200 to 500 nM; under setting [2], 200 to 500 nM. Consider `COc1cc(C#N)ccc1Oc1nnc(-c2cccc(C#N)c2)c(C)c1C(=O)Nc1cccc(S(C)(=N)=O)c1` (stereo not shown) [Compound 1451, 3-(4-cyano-2-methoxy-phenoxy)-6-(3-cyanophenyl)-5-methyl-N-[3-(methylsulfonimidoyl)phenyl]pyridazine-4-carboxamide], for which the IC50 reads like this: under setting [1], 200 to 500 nM; under setting [2], 200 to 500 nM.
